Reference: patent publication US20210317140A1, “Heterocyclic Compounds and Methods of Use” (MEDIVATION TECHNOLOGIES, INC, priority 2013, published 2021)
Values joined by “and” are separate entries in the source; they are usually repeats but may differ in a detail not shown here. Identical values can stand only once.

Assays:
[1] = target: T1, BTK (Homo sapiens, UniProt Q06187); assay: BTK kinase assay (HotSpot, 33P ATP); assay type: biochemical; details: for BTK @ 0.1 μM (% Inh): 0.1 μM compound; for BTK @ 0.1 μM (% Inh) / BTK @ 1 μM (% Inh) / BTK @ 0.01 μM (% Inh): 10 μM ATP; for BTK @ 1 μM (% Inh): 1 μM compound; for IC50: 10 dose IC50, 10 μM ATP; for BTK @ 0.01 μM (% Inh): 0.01 μM compound
T1 construct: purchased Reaction Biology Corporation
T1 sequence (Q06187 whole entry): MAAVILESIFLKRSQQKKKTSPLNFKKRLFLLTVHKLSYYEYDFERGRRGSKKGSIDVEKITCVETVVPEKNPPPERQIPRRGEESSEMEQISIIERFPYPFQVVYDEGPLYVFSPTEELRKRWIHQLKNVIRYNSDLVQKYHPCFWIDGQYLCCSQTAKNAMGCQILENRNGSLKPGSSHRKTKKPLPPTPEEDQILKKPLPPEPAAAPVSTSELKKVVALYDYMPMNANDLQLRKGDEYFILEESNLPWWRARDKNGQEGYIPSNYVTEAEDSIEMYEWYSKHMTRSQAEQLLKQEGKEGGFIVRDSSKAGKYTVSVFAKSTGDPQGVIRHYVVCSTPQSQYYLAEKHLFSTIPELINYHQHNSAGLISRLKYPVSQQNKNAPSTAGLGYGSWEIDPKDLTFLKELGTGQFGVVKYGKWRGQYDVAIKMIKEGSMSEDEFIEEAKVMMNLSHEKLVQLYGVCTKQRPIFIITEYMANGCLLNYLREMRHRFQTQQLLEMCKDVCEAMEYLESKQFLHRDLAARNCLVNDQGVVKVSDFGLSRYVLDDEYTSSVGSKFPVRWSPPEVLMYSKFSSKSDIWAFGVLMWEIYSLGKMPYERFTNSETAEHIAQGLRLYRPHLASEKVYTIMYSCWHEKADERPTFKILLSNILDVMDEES
Protocol: (§1) Compounds of the invention were profiled in a 10 dose IC50 panel against BTK and PI3Kδ, both provided by Reaction Biology Corporation.
BTK assay: In vitro profiling protein kinases was performed using the “HotSpot” assay platform. Briefly, specific kinase/substrate pairs along with required cofactors were prepared in reaction buffer. Compounds were prepared as 10 mM stock solutions in DMSO. Compounds were delivered into the reaction, followed 15-20 minutes later by addition of a mixture of ATP (Sigma, St. Louis Mo.) and ^33P ATP (Perkin Elmer, Waltham Mass.) to a final concentration of 10 μM. […] IC50 values and curve fits were obtained using Prism (GraphPad Software). Buffer Conditions: 20 mM Hepes (pH 7.5), 10 mM MgCl2, 1 mM EGTA, 0.02% Brij35, 0.02 mg/mL BSA, 0.1 mM Na3VO4, 2 mM DTT, 1% DMSO.

[2] = target: T2, PI3Kδ (Homo sapiens, UniProt O00329); assay: PI3Kδ kinase assay (HTRF, PIP3 detection); assay type: biochemical; details: for PI3Kδ @ 0.1 μM (% Inh): 0.1 μM compound; for PI3Kδ @ 0.1 μM (% Inh) / PI3Kδ @ 1 μM (% Inh) / PI3Kδ @ 0.01 μM (% Inh): 10 μM ATP; for PI3Kδ @ 1 μM (% Inh): 1 μM compound; for IC50: 10 dose IC50, 10 μM ATP; for PI3Kδ @ 0.01 μM (% Inh): 0.01 μM compound
T2 construct: purchased Reaction Biology Corporation
T2 sequence (O00329 whole entry): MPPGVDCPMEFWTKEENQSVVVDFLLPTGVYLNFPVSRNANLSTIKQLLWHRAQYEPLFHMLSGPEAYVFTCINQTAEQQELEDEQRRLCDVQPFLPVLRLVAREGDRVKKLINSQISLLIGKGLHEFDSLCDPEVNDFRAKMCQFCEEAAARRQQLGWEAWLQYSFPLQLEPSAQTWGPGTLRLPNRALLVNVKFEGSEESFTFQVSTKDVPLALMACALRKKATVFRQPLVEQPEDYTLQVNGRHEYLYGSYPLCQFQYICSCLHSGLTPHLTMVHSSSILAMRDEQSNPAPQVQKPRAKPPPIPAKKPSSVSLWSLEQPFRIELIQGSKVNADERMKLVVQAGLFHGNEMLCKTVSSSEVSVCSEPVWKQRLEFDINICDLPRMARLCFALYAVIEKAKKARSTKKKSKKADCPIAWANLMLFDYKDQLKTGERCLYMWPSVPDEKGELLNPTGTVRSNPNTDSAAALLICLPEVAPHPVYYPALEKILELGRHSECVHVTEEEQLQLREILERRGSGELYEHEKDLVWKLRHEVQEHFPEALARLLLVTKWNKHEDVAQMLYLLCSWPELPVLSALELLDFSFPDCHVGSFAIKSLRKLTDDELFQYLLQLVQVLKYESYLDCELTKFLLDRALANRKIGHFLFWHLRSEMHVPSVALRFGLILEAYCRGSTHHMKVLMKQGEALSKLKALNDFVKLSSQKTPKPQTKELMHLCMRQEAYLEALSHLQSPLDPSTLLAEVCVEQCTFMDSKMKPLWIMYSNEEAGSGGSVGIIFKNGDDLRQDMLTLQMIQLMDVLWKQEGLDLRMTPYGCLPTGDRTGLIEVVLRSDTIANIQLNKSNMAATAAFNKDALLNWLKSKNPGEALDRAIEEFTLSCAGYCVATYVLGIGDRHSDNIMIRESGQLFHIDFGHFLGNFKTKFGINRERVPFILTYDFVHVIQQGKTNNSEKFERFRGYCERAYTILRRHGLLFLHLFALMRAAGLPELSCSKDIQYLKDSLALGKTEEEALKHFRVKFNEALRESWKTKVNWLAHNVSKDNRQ
T2 sequence (P27986 whole entry partner): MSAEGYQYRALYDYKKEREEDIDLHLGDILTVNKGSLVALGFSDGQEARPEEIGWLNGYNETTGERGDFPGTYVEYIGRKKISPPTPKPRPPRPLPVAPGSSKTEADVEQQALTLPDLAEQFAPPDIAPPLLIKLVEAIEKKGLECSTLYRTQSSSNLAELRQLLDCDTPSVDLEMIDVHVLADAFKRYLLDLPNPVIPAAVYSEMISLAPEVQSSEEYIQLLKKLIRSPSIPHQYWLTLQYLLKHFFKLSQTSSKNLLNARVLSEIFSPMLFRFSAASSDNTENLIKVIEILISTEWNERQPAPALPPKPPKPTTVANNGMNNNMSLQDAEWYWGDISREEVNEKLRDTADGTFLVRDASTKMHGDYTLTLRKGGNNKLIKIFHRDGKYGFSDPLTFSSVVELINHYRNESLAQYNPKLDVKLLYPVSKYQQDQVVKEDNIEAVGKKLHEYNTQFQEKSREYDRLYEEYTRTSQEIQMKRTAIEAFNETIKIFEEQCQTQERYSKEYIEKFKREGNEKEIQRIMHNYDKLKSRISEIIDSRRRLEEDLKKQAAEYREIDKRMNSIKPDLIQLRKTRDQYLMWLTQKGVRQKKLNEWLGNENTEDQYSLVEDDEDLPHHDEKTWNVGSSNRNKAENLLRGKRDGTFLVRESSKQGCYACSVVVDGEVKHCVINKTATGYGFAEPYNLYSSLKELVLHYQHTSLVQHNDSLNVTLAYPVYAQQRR
Source text: as §1
PI3Kδ assay: The PIP3 product is detected by displacement of biotin-PIP3 from an energy transfer complex consisting of Europium labeled anti-GST monoclonal antibody, a GST-tagged pleckstrin homology (PH) domain, biotinylated PIP3 and Streptavidin-Allophycocyanin (APC). […] The PIP3 product formed by PI 3-Kinase(h) activity displaces biotin-PIP3 from the complex resulting in a loss of energy transfer and thus a decrease in signal. This is a 3-step reaction: First, the kinase reaction with PIP2 substrate is carried out in the presence of ATP (10 μM), and the reaction is quenched with stop Solution, and then finally detect by adding Detection Mixture followed by incubation (10 min). Reaction procedure: 1) Prepare substrate in freshly prepared Reaction Buffer. 2) Deliver kinase into the substrate solution and gently mix. 3) Deliver compounds in 100% DMSO (1 μM) into the kinase reaction mixture by Acoustic technology (Echo550; nanoliter range), incubate for 10 min at RT. 4) Deliver ATP into the reaction mixture to initiate the reaction. 5) Incubate for 30 min at 30° C. 6) Quench the reaction with Stop Solution. 7) Add Detection Mixture, and incubate for overnight. […] The emission ratio is converted into μM PIP3 production based on PIP3 standard curves. The nonlinear regression to obtain the standard curve and IC50 values are performed using Graphpad Prism software. Assay Buffer: HEPES 50 mM (pH7.0), NaN3 0.02%, BSA 0.01%, Orthovanadate 0.1 mM, 1% DMSO. Detection buffer: HEPES 10 mM (pH7.0), BSA 0.02%, KF 0.16 M, EDTA 4 mM. Substrate: 10 μM PIP2 substrate (PI(4,5)P2).

| SMILES | BTK @ 0.1 μM (% Inh) [1] [% Inh] | BTK @ 1 μM (% Inh) [1] [% Inh] | IC50 [1] | PI3Kδ @ 0.1 μM (% Inh) [2] [% Inh] | PI3Kδ @ 1 μM (% Inh) [2] [% Inh] | IC50 [2] | BTK @ 0.01 μM (% Inh) [1] [% Inh] | PI3Kδ @ 0.01 μM (% Inh) [2] [% Inh] |
| --- | --- | --- | --- | --- | --- | --- | --- | --- |
| COc1cc(F)cc(-c2nn(C3Cc4ccccc4C3)c3ncnc(N)c23)c1 [compound 5, 1-(2,3-dihydro-1H-inden-2-yl)-3-(3-fluoro-5-methoxyphenyl)-1H-pyrazolo[3,4-d]pyrimidin-4-amine] | 26.26 | 76.16 | 1970 nM and 1100 nM | 25.0 | 54.63 | 2790 nM and 1220 nM | – | – |
| CCOc1ccc(-c2nn(C3Cc4ccccc4C3)c3ncnc(N)c23)cc1OC [Compound No. 71, 1-(2,3-dihydro-1H-inden-2-yl)-3-(4-ethoxy-3-methoxyphenyl)-1H-pyrazolo[3,4-d]pyrimidin-4-amine] | 24.51 | 71.58 | 392 nM | 47.56 | 89.24 | 63.9 nM | – | – |
| Nc1ncnc2c1c(-c1ccc(Cl)nc1)nn2C1CCc2ccccc2C1 (stereo not drawn) [compound 25, 3-(6-chloro-3-pyridyl)-1-tetralin-2-yl-pyrazolo[3,4-d]pyrimidin-4-amine] | 20.21 | – | – | 27.39 | – | – | – | – |
| Nc1ncnc2c1c(-c1ccc3cn[nH]c3c1)nn2C1CCc2ccccc2C1 (racemic) [compound 9, 3-(1H-indazol-6-yl)-1-(1,2,3,4-tetrahydronaphthalen-2-yl)-1H-pyrazolo[3,4-d]pyrimidin-4-amine] | 15.85 | – | – | 44.86 | – | – | – | – |
| N#Cc1c(-c2cc(O)c(F)c(F)c2)c2c(N)ncnc2n1C1Cc2ccccc2C1 [compound 135, 4-amino-5-(3,4-difluoro-5-hydroxyphenyl)-7-(2,3-dihydro-1H-inden-2-yl)-7H-pyrrolo[2,3-d]pyrimidine-6-carbonitrile] | 88.59 | – | – | 84.33 | – | – | 51.3 | 51.74 |
| Nc1ncnc2c1c(-c1cc(O)c(F)c(F)c1)c(Cl)n2C1Cc2ccccc2C1 [compound 134, 5-[4-amino-6-chloro-7-(2,3-dihydro-1H-inden-2-yl)-7H-pyrrolo[2,3-d]pyrimidin-5-yl]-2,3-difluorophenol] | 74.7 | – | – | 56.02 | – | – | 17.28 | −6.1 |
| Nc1ncnc2c1c(N1CCOCC1)nn2C1Cc2ccccc2C1 [Compound No. 48, 1-(2,3-dihydro-1H-inden-2-yl)-3-(morpholin-4-yl)-1H-pyrazolo[3,4-d]pyrimidin-4-amine] | 1.56 | 16.21 | – | 7.12 | 11.95 | – | – | – |
| Cc1nc2ccc(-c3nn(C4Cc5ccccc5C4)c4ncnc(N)c34)cc2[nH]1 [Compound No. 82, 1-(2,3-dihydro-1H-inden-2-yl)-3-(2-methyl-1H-1,3-benzodiazol-6-yl)-1H-pyrazolo[3,4-d]pyrimidin-4-amine] | 11.64 | 30.18 | – | 41.76 | 82.95 | – | – | – |
| Nc1ncnc2c1c(-c1cc(O)cc(OC(F)(F)F)c1)nn2C1Cc2ccccc2C1 [Compound No. 72, 3-[4-amino-1-(2,3-dihydro-1H-inden-2-yl)-1H-pyrazolo[3,4-d]pyrimidin-3-yl]-5-(trifluoromethoxy)phenol] | 6.81 | 7.63 | – | 55.46 | 85.89 | – | – | – |
| COc1cc(-c2nn(C3Cc4ccccc4C3)c3ncnc(N)c23)cc(Cl)c1OC [Compound No. 80, 3-(3-chloro-4,5-dimethoxyphenyl)-1-(2,3-dihydro-1H-inden-2-yl)-1H-pyrazolo[3,4-d]pyrimidin-4-amine] | 45.74 | 68.21 | – | 5.1 | 29.99 | – | – | – |
| COc1ccc(-c2nn(C3CCc4ccccc43)c3ncnc(N)c23)cc1OC (stereo not drawn) [compound 34, 1-(2,3-dihydro-1H-inden-1-yl)-3-(3,4-dimethoxyphenyl)-1H-pyrazolo[3,4-d]pyrimidin-4-amine] | 23.12 | – | – | 51.63 | – | – | – | – |
| Nc1ncnc2c1c(CCCO)nn2C1Cc2ccccc2C1 (single isomer, unassigned) [Compound No. 65, 3-[4-amino-1-(2,3-dihydro-1H-inden-2-yl)-1H-pyrazolo[3,4-d]pyrimidin-3-yl]propan-1-ol] | 4.02 | 7.69 | – | −4.81 | 11.18 | – | – | – |
| CC(=O)Nc1cccc(-c2nn(C3Cc4ccccc4C3)c3ncnc(N)c23)c1 [Compound No. 59, N-{3-[4-amino-1-(2,3-dihydro-1H-inden-2-yl)-1H-pyrazolo[3,4-d]pyrimidin-3-yl]phenyl}acetamide] | 14.08 | 19.76 | – | 17.93 | 5.79 | – | – | – |
| Nc1ncnc2c1c(-c1cc(O)cc(F)c1)nn2C1Cc2cc(F)ccc2C1=O (stereo not drawn) [compound 51, 2-[4-amino-3-(3-fluoro-5-hydroxyphenyl)-1H-pyrazolo[3,4-d]pyrimidin-1-yl]-5-fluoro-2,3-dihydro-1H-inden-1-one] | 41.05 | 82.76 | 422 nM | 73.20 | 98.33 | 65.7 nM | – | – |
| Nc1ncnc2c1c(-c1ccc3c(c1)OCCCO3)nn2C1Cc2ccccc2C1 [Compound No. 74, 1-(2,3-dihydro-1H-inden-2-yl)-3-(3,4-dihydro-2H-1,5-benzodioxepin-7-yl)-1H-pyrazolo[3,4-d]pyrimidin-4-amine] | 10.82 | 33.05 | – | 10.99 | 65.15 | – | – | – |
| Nc1ccc(-c2nn(C3Cc4ccccc4C3)c3ncnc(N)c23)cn1 [Compound No. 96, 5-[4-amino-1-(2,3-dihydro-1H-inden-2-yl)-1H-pyrazolo[3,4-d]pyrimidin-3-yl]pyridin-2-amine] | 12.19 | – | – | 40.18 | – | – | 7.68 | 32.92 |
| CCCCOc1cc(-c2nn(C3Cc4ccccc4C3)c3ncnc(N)c23)ccc1OC [Compound No. 90, 3-(3-butoxy-4-methoxyphenyl)-1-(2,3-dihydro-1H-inden-2-yl)-1H-pyrazolo[3,4-d]pyrimidin-4-amine] | 6.79 | – | – | 44.39 | – | – | 7.39 | 9.23 |
| COc1ccc(-c2nn(C3Cc4ccccc4C3)c3ncnc(N)c23)cc1OC [Compound No. 35, 1-(2,3-dihydro-1H-inden-2-yl)-3-(3,4-dimethoxyphenyl)-1H-pyrazolo[3,4-d]pyrimidin-4-amine] | 29.9 | – | – | – | – | – | – | – |
